This passage reports Activity and Ki results from ChEMBL document CHEMBL3826881, “Evaluation of bisbenzamidines as inhibitors for matriptase-2” (Bioorg Med Chem Lett, 2016).

The target of test [1] is T1, Transmembrane protease serine 6 (Homo sapiens) (UniProt Q8IU80).
T1 sequence (whole entry): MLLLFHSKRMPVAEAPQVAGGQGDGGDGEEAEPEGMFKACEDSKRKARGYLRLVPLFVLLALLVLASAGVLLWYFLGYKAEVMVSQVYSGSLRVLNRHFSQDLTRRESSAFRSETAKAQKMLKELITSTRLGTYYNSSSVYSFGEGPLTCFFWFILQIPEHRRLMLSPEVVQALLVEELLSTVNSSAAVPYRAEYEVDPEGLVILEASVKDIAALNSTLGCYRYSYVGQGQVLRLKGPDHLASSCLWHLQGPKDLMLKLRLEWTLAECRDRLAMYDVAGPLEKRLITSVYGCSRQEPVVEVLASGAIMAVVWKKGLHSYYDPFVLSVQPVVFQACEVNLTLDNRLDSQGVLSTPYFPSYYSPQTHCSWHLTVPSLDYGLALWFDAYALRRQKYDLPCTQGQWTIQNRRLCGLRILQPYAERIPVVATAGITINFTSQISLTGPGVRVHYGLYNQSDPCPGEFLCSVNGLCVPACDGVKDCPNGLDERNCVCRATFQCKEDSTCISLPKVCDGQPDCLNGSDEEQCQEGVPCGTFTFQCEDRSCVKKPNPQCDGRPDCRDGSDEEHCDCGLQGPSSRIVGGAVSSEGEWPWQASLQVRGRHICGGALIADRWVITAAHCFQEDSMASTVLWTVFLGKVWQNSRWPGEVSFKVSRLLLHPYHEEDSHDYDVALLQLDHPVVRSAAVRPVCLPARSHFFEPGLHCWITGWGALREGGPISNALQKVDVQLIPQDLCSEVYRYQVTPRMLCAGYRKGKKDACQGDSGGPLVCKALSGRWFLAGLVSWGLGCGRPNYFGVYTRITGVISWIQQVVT
Kind of test: Inhibition of human matriptase-2 transfected in HEK cells assessed as residual activity at 40 uM using Boc-Gln-Ala-Arg-AMC as substrate after 20 mins by fluorimetric analysis. The test is classed as cell-based. Particulars: HEK293.

The target of the next test is Trypsin (Homo sapiens, UniProt P07477+P07478+P35030). Kind of test: Inhibition of human trypsin using Boc-Gln-Ala-Arg-AMC as substrate after 20 mins by fluorimetric analysis. Format: protein assay.
In another test the target is Coagulation factor X (Bos taurus, UniProt P00743). The test is described as follows: Inhibition of bovine factor 10a using Boc-Ile-Glu-Gly-Arg-AMC as substrate after 20 mins by fluorimetric analysis.
A further test concerns the target Prothrombin (Homo sapiens, UniProt P00734). The test is described as follows: Inhibition of human thrombin using Cbz-Gly-Gly-Arg-AMC as substrate after 20 mins by fluorimetric analysis.
Test [2] deals with T2, Transmembrane protease serine 6 (Homo sapiens, UniProt Q8IU80).
T2 sequence (Q8IU80 whole entry): T1 sequence (whole entry)
The test is described as follows: Inhibition of human matriptase-2 transfected in HEK cells using Boc-Gln-Ala-Arg-AMC as substrate after 20 mins by fluorimetric analysis. Format: cell-based, HEK293.

For test [3], the target named is T3, Suppressor of tumorigenicity 14 protein (Homo sapiens, UniProt Q9Y5Y6).
T3 sequence (Q9Y5Y6 whole entry): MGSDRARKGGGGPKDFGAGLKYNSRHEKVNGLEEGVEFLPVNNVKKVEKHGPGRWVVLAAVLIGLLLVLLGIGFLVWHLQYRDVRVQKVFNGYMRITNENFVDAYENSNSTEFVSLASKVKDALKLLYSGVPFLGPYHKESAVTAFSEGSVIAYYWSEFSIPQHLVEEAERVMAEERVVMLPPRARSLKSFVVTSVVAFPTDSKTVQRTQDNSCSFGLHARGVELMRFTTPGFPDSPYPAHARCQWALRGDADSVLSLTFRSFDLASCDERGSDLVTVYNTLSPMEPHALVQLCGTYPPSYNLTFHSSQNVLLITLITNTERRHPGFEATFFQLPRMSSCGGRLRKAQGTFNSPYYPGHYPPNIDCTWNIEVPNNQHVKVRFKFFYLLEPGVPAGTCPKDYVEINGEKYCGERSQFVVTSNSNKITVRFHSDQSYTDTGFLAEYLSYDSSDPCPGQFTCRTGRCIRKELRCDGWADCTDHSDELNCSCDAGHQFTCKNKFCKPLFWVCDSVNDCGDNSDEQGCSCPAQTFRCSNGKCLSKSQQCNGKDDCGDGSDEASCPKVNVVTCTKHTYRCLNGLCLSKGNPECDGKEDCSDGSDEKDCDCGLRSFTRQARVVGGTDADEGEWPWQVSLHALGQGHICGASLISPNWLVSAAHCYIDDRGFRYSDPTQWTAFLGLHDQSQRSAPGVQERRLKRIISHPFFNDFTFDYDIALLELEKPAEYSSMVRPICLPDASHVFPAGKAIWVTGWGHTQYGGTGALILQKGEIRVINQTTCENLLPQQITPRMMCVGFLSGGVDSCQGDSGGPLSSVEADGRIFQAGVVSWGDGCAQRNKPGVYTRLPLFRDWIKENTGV
The test is described as follows: Inhibition of human matriptase using Boc-Gln-Ala-Arg-AMC as substrate after 20 mins by fluorimetric analysis.

Test [4] addresses T1, Transmembrane protease serine 6 (Homo sapiens). Kind of test: Inhibition of human matriptase-2 transfected in HEK cells assessed as residual activity at 5 uM using Boc-Gln-Ala-Arg-AMC as substrate after 20 mins by fluorimetric analysis. The test is classed as cell-based. Conditions: HEK293.
The nature of test [5]: Inhibition of bovine trypsin after 15 to 30 mins. On the set-up: species or system Bos taurus.

The structures appear in SMILES notation.

Sequence of Coagulation factor X (P00743 41-180 limits assumed): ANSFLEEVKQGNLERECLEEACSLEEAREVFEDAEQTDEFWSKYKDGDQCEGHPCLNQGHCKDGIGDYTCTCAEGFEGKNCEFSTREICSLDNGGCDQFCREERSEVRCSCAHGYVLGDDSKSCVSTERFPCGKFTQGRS
Sequence of Coagulation factor X (P00743 234-492 limits assumed): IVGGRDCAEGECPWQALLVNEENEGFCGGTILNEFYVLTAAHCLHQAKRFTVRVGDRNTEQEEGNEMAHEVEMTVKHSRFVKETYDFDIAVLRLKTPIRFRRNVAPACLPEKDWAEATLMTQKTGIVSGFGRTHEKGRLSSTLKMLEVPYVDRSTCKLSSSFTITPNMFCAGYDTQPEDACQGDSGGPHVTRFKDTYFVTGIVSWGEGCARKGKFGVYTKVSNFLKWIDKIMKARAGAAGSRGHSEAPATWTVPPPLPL

Turning to `N=C(N)c1ccc(NC(=O)CCCCCCCC(=O)Nc2ccc(C(=N)N)cc2)cc1`, in test [1], the Activity was found to be 49%.

With `N=C(N)c1ccc(NCCNc2ccc(C(=N)N)cc2)cc1`, the Activity in test [1] was found to be 23%.

For the compound `N=C(N)c1ccc(NCCCCNc2ccc(C(=N)N)cc2)cc1`, the Activity in test [1] was 27%.

As for `N=C(N)c1ccc(NC(=O)CCCCCCCCC(=O)Nc2ccc(C(=N)N)cc2)cc1`, the Activity in test [1] is 33%.

In the case of `N=C(N)c1ccc(NC(=O)CCCCCCC(=O)Nc2ccc(C(=N)N)cc2)cc1`, the Activity in test [1] amounted to 62%.

With `N=C(N)c1ccc(NC(=O)CCCCCC(=O)Nc2ccc(C(=N)N)cc2)cc1`, the Activity in test [1] stood at 63%.

For `N=C(N)c1ccc(NCCCCCCNc2ccc(C(=N)N)cc2)cc1`, the Activity in test [1] was 21%.

Broadly, the Ki is a measure of affinity in units of concentration, obtained from inhibition or displacement. Low values mean a stronger hold on the target, high ones a looser hold on the target. Consider `N=C(N)c1ccc(N2CCCN(c3ccc(C(=N)N)cc3)CC2)cc1`, for which the Ki on Trypsin is 1900 nM; on Coagulation factor X it was 7830 nM; on Prothrombin it was 5300 nM; in test [2], 4390 nM; in test [3], 397 nM. In test [1], the Activity came out at 15%.

In the case of `N=C(N)c1ccc(NC(=O)c2cccc(C(=O)Nc3ccc(C(=N)N)cc3)c2)cc1`, the Activity in test [1] worked out at 32%.

Take `N=C(N)c1ccc(NC(=O)C(=O)Nc2ccc(C(=N)N)cc2)cc1`: the Ki at Trypsin turned out to be 1420 nM; at Coagulation factor X, 52300 nM; at Prothrombin, 15800 nM; in test [2] it was 6230 nM; in test [3], 492 nM. The Activity in test [1] was found to be 17%.

`N=C(N)c1ccc(OCc2cccc(COc3ccc(C(=N)N)cc3)c2)cc1`: the Activity in test [1] was determined as 17%.

For the compound `N=C(N)c1ccc(NCCCCCCCNc2ccc(C(=N)N)cc2)cc1`, the Ki at Trypsin turned out to be 244 nM; on Coagulation factor X it was 391 nM; at Prothrombin, 499 nM; in test [2], 3680 nM; in test [3] it was 558 nM. For the same compound, the Activity in test [1] is 16%.

For `N=C(N)c1ccc(NCCCCCCCCNc2ccc(C(=N)N)cc2)cc1`, the Ki at Trypsin came out at 192 nM; on Coagulation factor X, 1290 nM; on Prothrombin it was 317 nM; in test [2] it was 1640 nM; in test [3] it was 526 nM. For the same compound, the Activity in test [1] came to 8.6%.

With `N=C(N)c1ccc(NC(=O)CCCCC(=O)Nc2cccc(C(=N)N)c2)cc1`, the Activity in test [1] was 78%.

As to `N=C(N)c1ccc(NC(=O)CCCCC(=O)Nc2ccc(C(=N)N)cc2)cc1`, in test [1], the Activity was 57%.

Regarding `N=C(N)c1ccc(NC(=O)CCCC(=O)Nc2ccc(C(=N)N)cc2)cc1`, the Activity in test [1] was determined as 68%.

Take `N=C(N)c1ccc(NC(=O)CCC(=O)Nc2ccc(C(=N)N)cc2)cc1`: the Activity in test [1] was found to be 40%.

For `N=C(N)c1ccc(NC(=O)c2ccc(C(=O)Nc3ccc(C(=N)N)cc3)cc2)cc1`, the values for the Activity in test [4] and in test [1] were 93% and greater than 50%, respectively.

With `N=C(N)c1ccc(COc2ccccc2OCc2ccc(C(=N)N)cc2)cc1`, the Activity in test [1] was 46%.

Consider `N=C(N)c1ccc(N2CCN(c3ccc(C(=N)N)cc3)CC2)cc1`, for which the Ki was 513 nM at Trypsin; 20000 nM on Coagulation factor X; 10100 nM at Prothrombin; 1160 nM in test [2]; 719 nM in test [3]. The Activity in test [1] was 5.3%.

For `CN(CCNc1ccc(C(=N)N)cc1)c1ccc(C(=N)N)cc1`, the Activity in test [1] is 21%.

For `N=C(N)c1ccc(NCCCNc2ccc(C(=N)N)cc2)cc1`, the Activity in test [1] came to 55%.

Turning to `N=C(NC1CC1)c1ccc(N2CCCN(c3ccc(C(=N)NC4CC4)cc3)CC2)cc1`, the Activity in test [1] was 45%.

As for `N=C(N)c1ccc(OCc2ccccc2COc2ccc(C(=N)N)cc2)cc1`, the Ki on Trypsin came to 221 nM; at Coagulation factor X, 13700 nM; at Prothrombin, 279 nM; in test [2], 5200 nM; in test [3], 2280 nM. Moreover, the Activity in test [1] came to 19%.

On to `N=C(N)c1ccc(OCc2ccc(COc3ccc(C(=N)N)cc3)cc2)cc1`, for which the Ki came to 316 nM at Trypsin; 1300 nM in test [5]; 327 nM on Coagulation factor X; 1160 nM on Prothrombin; 5700 nM in test [2]; 816 nM in test [3]. Also, the Activity in test [1] came out at 16%.

For `CN(CCCN(C)c1ccc(C(=N)N)cc1)c1ccc(C(=N)N)cc1`, in test [1], the Activity came out at 23%.

As for `N=C(N)c1ccc(NC(=O)CCCCCCCCCCC(=O)Nc2ccc(C(=N)N)cc2)cc1`, the Activity in test [1] is 49%.
